Data taken from patent US20090104124A1, “Paramagnetic Complexes with Pendant Crown Compounds Showing Improved Targeting- Specificity as MRI Contrast Agents” (priority 2007, published 2009).

Legend:
liver parenchyma = assay: In vivo MRI, hepatic intensity enhancement (T1-weighted); parameters: species or system male Sprague-Dawley (SD) rats; settings: rat
Procedure: (§1) To study the MRI contrast and biodistribution behavior of gadolinium complexes […] pendant crown ethers, experiments were performed using male Sprague-Dawley (SD) rats that weighted 150-180 g, and were housed at the Wuhan Institute of Physical and Mathematics of the Chinese Academy of Sciences (Wuhan, Hubei Province, China). All procedures conformed to the institutional guidelines for animal welfare. The rat was injected via the femoral vein with 1 mL saline solution of GdL1 in concentrations of 0.1, 0.033, and 0.02 mM/kg, which are the standard dosage, one third and one fifth of the standard dosage used in clinic currently. MR imaging was performed on a 4.7 T Bruker BIO-SPEC-47/30 MRI scanner with a custom spiral surface coil. The animal was scanned in the prone position in the MRI experiment. […] The total duration of the dynamic scanning lasted up to 400 min after the administration, with an image every 4 min. A water tube was placed in the field of view as a phantom reference. The intensity enhancement (IE) of the region of interest (RI) at time point t is expressed by IE=100% (RI(t)-RI(0))/RI(0) where RI(t) corresponds to the normalized signal intensity as measured at time point, t and RI(0) is the normalized signal intensity precontrast.

[1] = Variable-temperature 17O NMR transverse relaxation (water exchange); format: physicochemical; settings: for TM (derived from VT 17O NMR spectroscopy): 25° C., pH 6.9; for exchange lifetime τM of the inner-sphere coordinated water molecules: 298 K (25° C.), 2.12 T
From the text: (§2) Measuring the relaxation rates of an abundant nuclear species as a function of the magnetic field over a wide range is called relaxometry. A relaxometry profile is a plot of the nuclear magnetic relaxation rate, usually 1/T1, as a function of the Larmor frequency or the magnetic field. This profile is also called a Nuclear Magnetic Resonance Dispersion (NMRD) profile. Compared with the NMRD profile, the prominent advantage of the ^17O NMR technique is that it allows the accurate determination of the water exchange rate 1/τM. This is a consequence of the oxygen nucleus being closer to the paramagnetic centre when bound in the inner-sphere, wherein the outer-sphere contributions to the relaxation rates are negligibly small. With the help of NMRD profiles, ^17O NMR measurements, and the Soloman-Bloemnergen-Morgan theory, several important parameters, such as τM, τR, τv, Δ^2 and τH, can be measured.
The variable-temperature ^17O NMR measurements were recorded on a JEOL EX-90 (2.1 T) spectrometer that was equipped with a 5 mm probe, by using a D2O external lock. The experimental settings were: spectral width of 10000 Hz, pulse width of 7 μs, acquisition time of 10 ms, 1000 scans, and no sample spinning. Solutions containing 2.6% of ^17O isotope were used. The observed transverse relaxation rates (R2obs^0) were calculated from the signal width at half height.

[2] = 1H NMRD profiles (water proton relaxivity); format: physicochemical; settings: for D: 25° C., pH 6.9, fits of NMRD profile and 17O NMR
From the text: as §2
Water proton nuclear magnetic resonance dispersion NMRD profile is used to record the longitudinal water proton relaxation rates as a function of magnetic fields. The method is, in principle, sensitive to all of the parameters that influence relaxivity. […] The relaxometer worked under complete control with an absolute uncertainty in 1/T1 of ±2%. The NMRD profiles were measured using 1-2 mM solutions of the complexes.

[3] = Luminescence lifetime measurements of Tb complexes for hydration number q; format: physicochemical; settings: for inner-sphere coordinated (bound) water molecules, luminescent measurements: pH 6.9; for kH2O, absolute emission depopulation rate constant in H2O: pH 6.9 (0.1 M Tris/HCl), 298 K, ±10%
From the text: As previously mentioned, inner-sphere proton relaxivity is linearly proportional to the number of water molecules q that are directly coordinated to the Gd^3+ center. However, there is a trade-off between the q value and toxicity. […] It is noteworthy that there is no direct method of measuring the hydration number. The two commonly used indirect methods are as follows: (1) Lanthanide-induced shift (LIS) methods (see, Alpoim et al., J. Chem. Soc., Dalton Trans., 1992, 463). For paramagnetic Ln^3+ ions, the plot of the observed ^17O shift in Ln^3+ chelate solution versus the complex concentration gives a straight line, with the slope being proportional to its hydration number. (2) The lanthanide luminescence method. According to the Horrocks equation, the q value can be calculated by the emission rate constants for the depopulation of Tb^3+ or Eu^3+ complexes measured in H2O and D2O (see, Beeby at al., J. Chem. Soc., Perkin Trans. 2, 1999, 493). With this method, the q values of the Gd^3+ complexes in aqueous solution can be measured indirectly by their corresponding Tb^3+ or Eu^3+ complexes, because of the very similar coordination behavior between these three lanthanide ions.
Luminescence lifetime measurements were all obtained on a Perkin-Elmer LS 50B spectrofluorimeter with a 420 nm cut-off filter. The concentration of the complex was 1×10^−5˜1×10^−4 mol dm^−3. The emission of Tb^3+ or EU^3+ complexes was monitored at […]. Gd^3+ is a neighbor of Eu^3+ and Tb^3+ with a nearly identical ionic radius, and thus their chemistries are virtually identical. Therefore, the Horrocks equation for determining the number of coordinated water molecules q for Eu^3+ and Tb^3+ is still valid for the calculation of the q value of Gd^3+. In general, the number of coordinated water molecules q can be determined by the measurement of the luminescent lifetime of the complexes separately in H2O and D2O by application of the Horrocks equation.
qcorr=A(kH2O−kD2O−a)
where k is the constant for depopulation (reciprocal of luminescent lifetime), and A is a proportionality constant that signifies the sensitivity of the lanthanide ion to vibronic quenching by OH oscillators. a is correlation value for the consideration of the outer-sphere water molecules.

MIHA cells [4] = assay: In vitro cytotoxicity, cell proliferation assay (MTT / XTT-based); settings: 1×10^−2 M, 24 h incubation
Procedure: To further investigate the potential ability of GdL1 as an NMRI contrast agent, its cytotoxicity was measured by MTT assay. The toxicity of GdL1 was determined from the dose-dependence of surviving cells after exposure to this Gd^3+ complex at different time intervals. For comparison, the cytotoxicities of Gd-DOTA and Gd-DO3A were measured under the same conditions.
To evaluate the toxicity of prepared Gd^3+ complexes, a colorimetric assay (XTT-based) for the non-radioactive quantification of cell proliferation was applied. In the cell proliferating process, the added tetrazolium salt XTT was cleaved to a formazan dye by metabolically active cells, and the quantification of cell growth was achieved by the variation of the absorbance at 492 nm. Seed MIHA Cells at a concentration of 5×10^3 cells/well (tissue culture grade, 96 wells, flat bottom) were added to Gd^3+ complexes (0.625-10 mM) in a humidified atmosphere (37° C., 6.5% CO2). Different concentrations of drugs were adjusted by performing serial dilution. The incubation period of the cell culture ranged from 1, 2, 8, and 24 hrs. XTT dye at a concentration of 5 mg/mL (sigma, St. Louis, Mo.) was added, and the plates were incubated for 12 h in a moist chamber at 37° C. The optical density was determined by eluting the dye with dimethyl sulfoxide, and the absorbance was measured at 570 nm. […]

MIHA cells [5] = assay: AO/EB staining, laser scanning confocal microscopy of cell morphology; format: cell-based; settings: 10 μM, up to 24 h of incubation
Procedure: MIHA cells in the absence (control) and presence of Gd-DOTA (10 μM), Gd-DO3A (10 μM), and GdL1 (10 μM) incubated at 37° C. and 5% CO2, 95% air in a humidified incubator for 1 h, 2 h, 8 h, and 24 h, respectively.
Based on cell morphology and cell membrane integrity, normal, necrotic, and apoptotic cells can be distinguished using laser confocal microscopy. FIG. 22 gives the cell morphology in the absence and presence of Gd-DOTA (10 μM), Gd-DO3A (10 μM), and GdL1 (10 μM) at various time intervals after the incubation. In the absence or presence of the Gd^3+ complexes, the nuclei of the living cells were stained as bright blue spots in the nucleus.

kidney cortex = assay: In vivo MRI, renal intensity enhancement (T1-weighted); parameters: species or system male Sprague-Dawley (SD) rats; settings: rat, 0.1 mmol/kg
Procedure: as §1

[6] = 298 K; cited from earlier work
[7] = 20 MHz, 298 K; cited from earlier work
[8] = complex with Gd^3+; cited from earlier work

Row | SMILES | TM (derived from VT 17O NMR spectroscopy) [1] | exchange lifetime τM of the inner-sphere coordinated water molecules [1] | D [2] | kH2O, absolute emission depopulation rate constant in H2O [3] | apoptotic or necrotic cells (cell morphology, AO/EB) (MIHA cells [5]) | further results
1 | O=C([O-])CN1CCN(CCOCC2COCCOCCOCCOCCO2)CCN(CC(=O)[O-])CCN(CC(=O)[O-])CC1.[Gd+3] (stereo not drawn) [GdL2] | 116 ns | 116 ns | 2.24E−5 cm^2s^−1 |  |  | level of hepatic enhancement maintained for more than 4 h (liver parenchyma; 0.1 mmol/kg): > 60%; time for which hepatic intensity enhancement was maintained (liver parenchyma; 0.1 mmol/kg): more than 4 h; overall relaxivity r1p ([2]; 20 MHz, pH 10.0): 4.21 mM⁻¹ s⁻¹
2 | O=C([O-])CN1CCN(CC(=O)[O-])CCN(CC(=O)N2CCOCCOCCN(Cc3ccc4ccccc4n3)CCOCCOCC2)CCN(CC(=O)[O-])CC1.[Tb+3] [TbL3] |  |  |  | 0.50 ms^−1 |  | inner-sphere coordinated (bound) water molecules, luminescent measurements [3]: only one
3 | O=C([O-])CN1CCN(CCN2CCOCCOCCOCCOCC2)CCN(CC(=O)[O-])CCN(CC(=O)[O-])CC1.[Gd+3] [GdL1] | 55 ns | 55 ns | 2.24E−5 cm^2s^−1 |  | no obvious apoptotic or necrotic cells were found | viability of the MIHA cells (MIHA cells [4]): not affected obviously; time after injection of maximal hepatic IE (liver parenchyma; 0.03 mmol/kg): 60 to 100 min; hepatic IE on plateau (liver parenchyma; 0.033 mmol/kg): > 60%; resident lifetime in hepatic tissue (liver parenchyma; 0.1 mmol/kg): > 4 h; inner-sphere coordinated water molecules from 1H NMRD profiles [2]: two; renal IE still preserved 250 minutes after injection (kidney cortex): 40%
4 | O=C([O-])CN1CCN(CC(=O)[O-])CCN(CC(=O)N2CCOCCOCCN(Cc3ccc4ccccc4n3)CCOCCOCC2)CCN(CC(=O)[O-])CC1.[Gd+3] [GdL3] | 246 ns | 246 ns | 2.24E−5 cm^2s^−1 |  |  | level of hepatic enhancement maintained for more than 4 h (liver parenchyma; 0.1 mmol/kg): about 50%; time for which hepatic intensity enhancement was maintained (liver parenchyma; 0.1 mmol/kg): more than 4 h; reorientation lifetime τR [2]: 210 ps; q from NMRD profile ([2]; pH 7.5): 1
5 | O=C([O-])CN1CCNCCN(CC(=O)[O-])CCN(CC(=O)[O-])CC1.[Tb+3] [Tb-DO3A, reference compound] |  |  |  | 0.88 ms^−1 |  | 
6 | O=C([O-])CN1CCNCCN(CC(=O)[O-])CCN(CC(=O)[O-])CC1.[Gd+3] [Gd-DO3A, reference compound] | 160 ns | 160 ns | 2.24E−5 cm^2s^−1 |  | no obvious apoptotic or necrotic cells were found | 
7 | O=C([O-])CN1CCN(CC(=O)[O-])CCN(CC(=O)O)CCN(CC(=O)[O-])CC1.[Gd+3] [Gd-DOTA, reference compound] | 300 ns | 245 ns | 2.24E−5 cm^2s^−1 |  | no obvious apoptotic or necrotic cells were found | bound water molecular resident lifetime τM (typical values) [6]: about 244 ns; maximal hepatic IE (liver parenchyma; 0.02 mmol/kg (1/5 of standard dose)): no remarkable hepatic IE was detected; relaxivity r1p (typical values) [7]: 4.74 mM⁻¹ s⁻¹
8 | O=C([O-])CN(CCN(CC(=O)[O-])CC(=O)O)CCN(CC(=O)[O-])CC(=O)O.[Gd+3] [Gd-DTPA] | 250 ns |  | 2.24E−5 cm^2s^−1 |  |  | bound water molecular resident lifetime τM (typical values) [6]: ~303 ns; relaxivity r1p (typical values) [7]: 4.69 mM⁻¹ s⁻¹; log K (K = formation constant of the metal complex) [8]: 24.6
9 | O=C([O-])CN1CCN(CCN2CCOCCOCCOCCOCC2)CCN(CC(=O)[O-])CCN(CC(=O)[O-])CC1.[Tb+3] [TbL1] |  |  |  | 0.72 ms^−1 |  | inner-sphere coordinated (bound) water molecules, luminescent measurements [3]: two
10 | O=C([O-])CN1CCN(CC(=O)[O-])CCN(CC(=O)[O-])CCN(CC(=O)[O-])CC1.[Tb+3] [Tb-DOTA, reference compound] |  |  |  | 0.48 ms^−1 |  | 
